Results from patent US4001209A, “Antibiotic G-52 and method for the production thereof” (Schering Corporation, priority 1975, dated 1977).
≈ marks a conversion by molar mass, not a printed value.

Columns and labels:
Escherichia coli 11775 = assay: Minimum Inhibitory Concentration; assay type: cell-based; conditions: Tryptose phosphate broth at pH 7.2
From the text: (§1) Test Medium: Tryptose phosphate broth at pH 7.2.

Escherichia coli 578 = assay: Minimum Inhibitory Concentration; assay type: cell-based; conditions: Tryptose phosphate broth at pH 7.2
From the text: as §1

[1] = tested on: Klebsiella pneumoniae Ad 17 - kR; assay: Minimum Inhibitory Concentration; assay type: cell-based; conditions: AD17KR, pH 7.2
From the text: as §1

Proteus mirabilis 8019 = assay: Minimum Inhibitory Concentration; assay type: cell-based; conditions: Tryptose phosphate broth at pH 7.2
From the text: as §1

[2] = tested on: Pseudomonas aeruginosa 130 - GR; assay: Minimum Inhibitory Concentration; assay type: cell-based; conditions: Tryptose phosphate broth at pH 7.2
From the text: as §1

[3] = tested on: Pseudomonas aeruginosa 236 - GR; assay: Minimum Inhibitory Concentration; assay type: cell-based; conditions: Tryptose phosphate broth at pH 7.2
From the text: as §1

[4] = tested on: Salmonella paratyphi 13311; assay: Minimum Inhibitory Concentration; assay type: cell-based; conditions: Salmonella enterica, pH 7.2
From the text: as §1

[5] = tested on: Staphylococcus aureus 209P; assay: Minimum Inhibitory Concentration; assay type: cell-based; conditions: Tryptose phosphate broth at pH 7.2
From the text: as §1

Staphylococcus aureus 45 = assay: Minimum Inhibitory Concentration; assay type: cell-based; conditions: Tryptose phosphate broth at pH 7.2
From the text: as §1

Streptococcus pyogenes C = assay: Minimum Inhibitory Concentration; assay type: cell-based; conditions: Tryptose phosphate broth at pH 7.2
From the text: as §1

Escherichia coli = assay: Protective Activity in mice; assay type: in vivo, Mice (Carworth Farms CF-1); conditions: sc, S.C., single dose of antibiotic (sulfate) 1 hour after intraperitoneal infection (10^7 organisms), survivors at 48 hours, read-out: PD50
Procedure: (§2) a. Mice (Carworth Farms CF-1 weighing about 18 - 20 grams) are treated with a single dose of antibiotic (sulfate) one (1) hour after an intraperitoneal infection with a lethal (10^7 organisms) quantity of the infectious organism. The number of survivors are determined 48 hours after infection and the data analyzed by standard probit procedures to determine the PD50 values with 95% confidence limits.

Pseudomonas aeruginosa = assay: Protective Activity in mice; assay type: in vivo, Mice (Carworth Farms CF-1); conditions: sc, S.C., single dose of antibiotic (sulfate) 1 hour after intraperitoneal infection (10^7 organisms), survivors at 48 hours, read-out: PD50
Procedure: as §2

[6] = tested on: Staphylococcus aureus Gray; assay: Protective Activity in mice; assay type: in vivo, Mice (Carworth Farms CF-1); conditions: sc, S.C., single dose of antibiotic (sulfate) 1 hour after intraperitoneal infection (10^7 organisms), survivors at 48 hours, read-out: PD50
Procedure: as §2

Acute Toxicity = conditions: mouse, in vivo, sc
Procedure: b. The acute toxicity of Antibiotic G-52 in the form of the sulfate salt is determined in the standard manner by administration of the antibiotic to mice (CF-1) intravenously, subcutaneously and intraperitoneally. The results are analyzed by standard probit procedures to determine the LD50 values with 95% confidence limits.

Solubility = assay type: physicochemical
Stability = assay type: physicochemical
[7] = tested on: gram-positive and gram-negative microorganisms; assay: Antibacterial activity (general statement); assay type: cell-based
[8] = tested on: Staphylococcus aureus A.T.C.C. 6538P; assay: standard disc plate microbiological assay

CNCC1=CC[C@@H](N)[C@@H](O[C@H]2[C@H](O)[C@@H](O[C@H]3OC[C@](C)(O)[C@H](NC)[C@H]3O)[C@H](N)C[C@@H]2N)O1 [Antibiotic G-52]
MIC (Escherichia coli 11775): 3 µg/mL (≈ 6.5 µM) | MIC (Escherichia coli 578): 7.5 µg/mL (≈ 16.2 µM) | MIC [1]: 0.8 µg/mL (≈ 1.73 µM) | MIC (Proteus mirabilis 8019): 7.5 µg/mL (≈ 16.2 µM) | MIC [2]: 25 µg/mL (≈ 54.2 µM) | MIC [3]: 25 µg/mL (≈ 54.2 µM) | MIC [4]: 17.5 µg/mL (≈ 37.9 µM) | MIC [5]: 0.3 µg/mL (≈ 0.65 µM) | MIC (Staphylococcus aureus 45): 0.8 µg/mL (≈ 1.73 µM) | MIC (Streptococcus pyogenes C): 25 µg/mL (≈ 54.2 µM) | ED50 (Escherichia coli): 2.5 mg/kg | ED50 (Pseudomonas aeruginosa): 1.5 mg/kg | ED50 [6]: 2.5 mg/kg | LD50 (Acute Toxicity): 400 mg/kg | solubility in organic solvents (Solubility; most polar organic solvents such as lower alcohols, dimethylformamide, dimethylsulfoxide, pyridine): some degree of solubility | solubility in water (Solubility; water): very soluble | stable to boiling (Stability; MacIlvaines buffer from pH 2-8): ≥ 30 min | stable to boiling (Stability; sodium hydroxide-boric acid buffer from pH 8-10): ≥ 30 min | effect on growth of gram-positive and gram-negative microorganisms [7]: adversely affect the growth | zone of inhibition at 1 µg/disc ([8]; Staphylococcus aureus): 17.7 ± 1 mm | potency (assay) ([8]; against standard antibiotic base (defined potency 1000 mcg/mg)): about 1000 mcg/mg
